Patent publication US20250041298A1, “CDK4 INHIBITOR FOR THE TREATMENT OF CANCER” (Pfizer Inc., priority 2021, published 2025)
Read-outs that look alike come from different tables or passages of the source. Marks after values point to notes of the source that are not given here.

Test: Phase 1/1b clinical trial: plasma pharmacokinetics of PF-07220060
Format: in vivo, human
Conditions: for Cmax / AUC / Tmax / half-life: human, plasma, po; for Tmax: median, read-out: Tmax; for half-life: arithmetic mean
Procedure: Oral PF-07220060 was administered with at least 8 oz (240 mL) of water on an empty stomach (except during the food effect evaluation on Day-7 in Part 1D). No food or liquids other than water was consumed for 2 hours before and 1 hour following each dose throughout the study for BID dosing. No food or liquids other than water was consumed for 2 hours before and 2 hours after each dose throughout the study for QD dosing.
In the ongoing Phase 1/1b Study, as of Aug. 30, 2022, preliminary PK data for PF-07220060 as monotherapy (Part 1A) and in combination with endocrine therapy (Part 1B and Part 1C) was available from 60 participants with advanced solid tumors. PF-07220060 was administered orally as a single agent at doses ranging from 100 to 500 mg BID, and in combination with either letrozole or fulvestrant at 300 to 400 mg BID. Available plasma concentration-time data of PF-07220060 were analyzed using noncompartmental methods.
Preliminary noncompartmental PK analysis was conducted based on available samples collected from participants in the Study. […] Table 4 presents the summary of PK parameters for PF-07220060 as monotherapy, and in combination with letrozole or fulvestrant.

[1] = 200 mg BID oral monotherapy (Part 1A), C1D15, geometric mean
[2] = 300 mg BID oral + fulvestrant (Part 1C), C1D15, geometric mean
[3] = 300 mg BID oral + letrozole (Part 1B), C1D15, geometric mean
[4] = 300 mg BID oral monotherapy (Part 1A), C1D15, geometric mean
[5] = 400 mg BID oral + fulvestrant (Part 1C), C1D15, geometric mean
[6] = 400 mg BID oral + letrozole (Part 1B), C1D15, geometric mean
[7] = 400 mg BID oral monotherapy (Part 1A), C1D15, geometric mean

Work on `CC(C)n1c(C(C)(C)O)nc2c(F)cc(-c3nc(N[C@@H]4CCOC[C@H]4O)ncc3Cl)cc21` [PF-07220060, 1,5-anhydro-3-({5-chloro-4-[4-fluoro-2-(2-hydroxypropan-2-yl)-1-(propan-2-yl)-1H-benzimidazol-6-yl]pyrimidin-2-yl}amino)-2,3-dideoxy-D-threo-pentitol] yielded a CL/F (100 mg BID oral monotherapy (Part 1A), C1D15, geometric mean, n = 2) of 24.61 L/h, a CL/F [1] of 31.41 L/h and a Cmin [1] of 440 ng/mL. For the same molecule, the CL/F [2] was 38.02 L/h, the Cmin [2] was 347.4 ng/mL and the CL/F [3] was 28.95 L/h. It also gave a Cmin [3] of 487.1 ng/mL, a CL/F [4] of 37.06 L/h and a Cmin [4] of 470.4 ng/mL. The CL/F [5] was 41.86 L/h, the Cmin [5] was 563.3 ng/mL and the CL/F [6] was 34.9 L/h. The Cmin [6] was 728.3 ng/mL, the CL/F [7] was 49.98 L/h and the Cmin [7] was 450.3 ng/mL. The Cmin (500 mg BID oral monotherapy (Part 1A), C1D15, geometric mean) was 848.8 ng/mL, the CL/F (500 mg BID oral monotherapy (Part 1A), C1D15, n = 1) was 40.1^a L/hr and the Cmax (100 mg, 100 mg BID oral monotherapy (Part 1A), C1D1 post first dose, geometric mean) was 280 ng/mL. For the same molecule, the AUC (100 mg, 100 mg BID oral monotherapy (Part 1A), C1D1 post first dose, geometric mean, read-out: AUC12) was 1780 ng·h/mL, the Tmax (100 mg, 100 mg BID oral monotherapy (Part 1A), C1D1 post first dose) was 2 h and the AUC (100 mg, 100 mg BID oral monotherapy (Part 1A), C1D15, geometric mean, n = 2, read-out: AUCtau) was 4060 ng·h/mL. For the same molecule, the Cmax (100 mg, 100 mg BID oral monotherapy (Part 1A), C1D15 post multiple doses, geometric mean) was 617 ng/mL, the Tmax (100 mg, 100 mg BID oral monotherapy (Part 1A), C1D15 post multiple doses) was 1 h and the Cmax (200 mg, 200 mg BID oral monotherapy (Part 1A), C1D1 post first dose, geometric mean) was 454 ng/mL. For the same molecule, the AUC (200 mg, 200 mg BID oral monotherapy (Part 1A), C1D1 post first dose, geometric mean, read-out: AUC12) was 2330 ng·h/mL, the Tmax (200 mg, 200 mg BID oral monotherapy (Part 1A), C1D1 post first dose) was 3.9 h and the half-life (200 mg, 200 mg BID oral monotherapy (Part 1A), C1D15) was 5.1 h. For the same molecule, the AUC (200 mg, 200 mg BID oral monotherapy (Part 1A), C1D15, geometric mean, read-out: AUCtau) was 6370 ng·h/mL, the Cmax (200 mg, 200 mg BID oral monotherapy (Part 1A), C1D15 post multiple doses, geometric mean) was 1010 ng/mL and the Tmax (200 mg, 200 mg BID oral monotherapy (Part 1A), C1D15 post multiple doses) was 2.5 h. The Cmax (300 mg BID oral + fulvestrant (Part 1C), C1D1 post first dose, geometric mean) was 849 ng/mL, the AUC (300 mg BID oral + fulvestrant (Part 1C), C1D1 post first dose, geometric mean, read-out: AUC12) was 6130 ng·h/mL and the Tmax (300 mg BID oral + fulvestrant (Part 1C), C1D1 post first dose) was 2 h. The half-life (300 mg BID oral + fulvestrant (Part 1C), C1D15) was 5.7 h, the AUC (300 mg BID oral + fulvestrant (Part 1C), C1D15, geometric mean, read-out: AUCtau) was 7890 ng·h/mL and the Cmax (300 mg BID oral + fulvestrant (Part 1C), C1D15 post multiple doses, geometric mean) was 1190 ng/mL. For the same molecule, the Tmax (300 mg BID oral + fulvestrant (Part 1C), C1D15 post multiple doses) was 1 h, the Cmax (300 mg BID oral + letrozole (Part 1B), C1D1 post first dose, geometric mean) was 989 ng/mL and the AUC (300 mg BID oral + letrozole (Part 1B), C1D1 post first dose, geometric mean, read-out: AUC12) was 6440 ng·h/mL. It also gave a Tmax (300 mg BID oral + letrozole (Part 1B), C1D1 post first dose) of 3 h, a half-life (300 mg BID oral + letrozole (Part 1B), C1D15) of 4.1 h and an AUC (300 mg BID oral + letrozole (Part 1B), C1D15, geometric mean, read-out: AUCtau) of 10400 ng·h/mL.
